This note sets out measurements from US20170283850A1, “METHODS OF DETECTING ADENOSINE DEAMINASE DEFICIENCY” (CHILDREN'S HOSPITAL OF EASTERN ONTARIO, priority 2014, published 2017).

Series [1] can be described thus: Stability of purine metabolites in DBS on storage. It counts as physicochemical. The conditions noted are these: 5 and 25 μmol/L in DBS, stored 4.5 weeks at −20° C., 23° C. (ambient) and 30° C. On the procedure:
Stability of purine metabolites in DBS was assessed by storing spiked samples (5 and 25 μmol/L) at various temperatures (ambient, −20° C. and 30° C.). Analysis was carried out as described over a period of […].
Analysis of DBS specimens containing Ado, dAdo, Gua and dGua at 5 and 25 μmol/L stored for a period of 4.5 weeks at −20° C., 23° C.

Series [2] is described as follows: Loss of standard purines added to whole blood (residual ADA activity). Type of series: in vitro ADME. Conditions: whole blood without EHNA. On the procedure:
DBS calibrators could not be prepared in this work due to residual ADA activity that persisted after traditional enzyme deactivation treatments such as freeze-thawing or heating whole blood at 45° C. for 24 hours. EHNA, a specific ADA inhibitor, was added to whole blood to prevent the deamination of Ado and dAdo to inosine and deoxyinosine, respectively. Purine metabolites were extracted from 3.2 mm dried calibrators or DBS specimens using an aqueous solution of 70% methanol (v/v) containing isotope labeled IS. This solution was added directly into a 96-well plate containing samples and incubated at 37° C. with shaking (650 rpm). The extraction yield reached its maximum at 15 minutes or more. The following experiments therefore were performed at 37° C. for 15 min. Purine metabolites were stable for at least 24 h when stored in a tightly sealed vial at 8° C.
SCID newborn screening began in the United States following the recent addition of this condition to the uniform panel as recommended by the US Department of Health and Human Services. In Canada, Ontario was the first jurisdiction to screen for SCID, which began in August, 2013. TREC analysis is the primary screening method and can be achieved by real-time PCR using neonatal DBS, the sample of choice for newborn screening. However, TREC analysis is inadequate to provide additional information regarding the etiology of SCID. […]

The target of the next series is ADA (Homo sapiens, UniProt P00813). Conditions: DBS eluate, substrate 1.0 μmol/L, 37° C., 30 minutes or more.
Sequence of ADA (P00813 whole entry): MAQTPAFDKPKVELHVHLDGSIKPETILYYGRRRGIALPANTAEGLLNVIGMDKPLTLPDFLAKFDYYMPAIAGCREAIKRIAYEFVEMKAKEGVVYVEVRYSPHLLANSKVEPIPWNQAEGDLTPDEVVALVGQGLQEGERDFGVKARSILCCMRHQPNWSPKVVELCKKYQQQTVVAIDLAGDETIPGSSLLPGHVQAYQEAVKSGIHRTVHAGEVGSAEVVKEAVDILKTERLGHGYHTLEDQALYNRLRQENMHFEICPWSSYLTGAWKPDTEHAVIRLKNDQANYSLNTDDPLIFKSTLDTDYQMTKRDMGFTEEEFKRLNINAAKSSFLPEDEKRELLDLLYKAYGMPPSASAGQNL

For `Nc1ncnc2c1ncn2[C@H]1C[C@H](O)[C@@H](CO)O1` [dAdo, deoxyadenosine], in series [1], the “Stability in DBS specimens” value was “stable”. Also, the “Stability on adding standard purines to whole blood” value in series [2] is “immediate loss”.
Consider `Nc1nc2c(ncn2[C@@H]2O[C@H](CO)[C@@H](O)[C@H]2O)c(=O)[nH]1` [Gua, guanosine], for which, in series [1], the “Stability in DBS specimens” value is given as “stable”.
“erythro-9-(2-hydroxy-3-nonyl) adenine [EHNA]”: the “Optimum EHNA concentration for ADA activity measurements” value at ADA is at least 10 µM.
Take `Nc1nc2c(ncn2[C@H]2C[C@H](O)[C@@H](CO)O2)c(=O)[nH]1` [dGua, deoxyguanosine]: in series [1], the “Stability in DBS specimens” value was “stable”.
Regarding `Nc1ncnc2c1ncn2[C@@H]1O[C@H](CO)[C@@H](O)[C@H]1O` [Ado, adenosine], the “Stability in DBS specimens” value in series [1] is on record as “stable”. In series [2], the “Stability on adding standard purines to whole blood” value was “immediate loss”.
